Source: PubChem BioAssay AID256 (DTP/NCI, 2004)
Inconclusive results and toxic doses are left out. The calls were made as follows: active = survival T/C of 150% or more; inactive = T/C below 125% in these data.

Test system: CD2F1 mice, L1210 leukemia ip, survival T/C
Test: NCI In Vivo Anticancer Drug Screen. Data for tumor model L1210 Leukemia (intraperitoneal) in CD2F1 (CDF1) mice
Settings: higher = longer survival
Outline: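 Activity against a transplanted murine tumor was judged by comparing the compound group with a vehicle group. The outcome in the treated animals was divided by that in the controls.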

[1] = endpoint: mean survival time, dose: 50.0 mg/kg/injection, schedule: Q01DX009 (ip), vehicle: saline with Tween-80
[2] = endpoint: mean survival time, dose: 100.0 mg/kg/injection, schedule: Q01DX009 (ip), vehicle: saline with Tween-80
[3] = endpoint: mean survival time, dose: 200.0 mg/kg/injection, schedule: Q01DX009 (ip), vehicle: saline with Tween-80
[4] = endpoint: mean survival time, dose: 12.5 mg/kg/injection, schedule: Q01DX009 (ip), vehicle: saline with Tween-80
[5] = endpoint: mean survival time, dose: 25.0 mg/kg/injection, schedule: Q01DX009 (ip), vehicle: saline with Tween-80
[6] = endpoint: mean survival time, dose: 100.0 mg/kg/injection, schedule: Q04DX003 (ip), vehicle: saline with Tween-80
[7] = endpoint: mean survival time, dose: 200.0 mg/kg/injection, schedule: Q04DX003 (ip), vehicle: saline with Tween-80
[8] = endpoint: mean survival time, dose: 400.0 mg/kg/injection, schedule: Q04DX003 (ip), vehicle: saline with Tween-80
[9] = endpoint: mean survival time, dose: 100.0 mg/kg/injection, schedule: Q04DX003 (ip), vehicle: saline
[10] = endpoint: mean survival time, dose: 200.0 mg/kg/injection, schedule: Q04DX003 (ip), vehicle: saline
[11] = endpoint: mean survival time, dose: 400.0 mg/kg/injection, schedule: Q04DX003 (ip), vehicle: saline

Measured: T/C

c1ccc2c3c(ccc2c1)CN1CCCCC1C3 (stereo not drawn)
inactive: [1] 102 % of control | [2] 100 % of control | [3] 104 % of control

CCOc1ccccc1C1N(C)CCCN1C
inactive: endpoint: mean survival time, dose: 6.25 mg/kg/injection, schedule: Q01DX009 (ip), vehicle: saline with Tween-80 105 % of control | [4] 100 % of control | [5] 110 % of control

O=[N+]([O-])c1ccc(N/N=C2/C3CCC(C3)C2C(O)(C(F)(F)F)C(F)(F)F)c([N+](=O)[O-])c1 (stereo not drawn)
inactive: endpoint: mean survival time, dose: 50.0 mg/kg/injection, schedule: Q04DX003 (ip), vehicle: saline with Tween-80 94 % of control | [6] 95 % of control | [7] 94 % of control | [8] 103 % of control

CCOC(=O)CCC1(CCC(=O)OCC)OCCO1
inactive: [6] 93 % of control | [9] 100 % of control | [7] 98 % of control | [10] 96 % of control | [8] 98 % of control | [11] 100 % of control

CC(C)(C)OC1C2C=CC1C=C2 (stereo not drawn)
inactive: endpoint: mean survival time, dose: 100.0 mg/kg/injection, schedule: Q01DX001 (ip), vehicle: saline with Tween-80 100 % of control | endpoint: mean survival time, dose: 200.0 mg/kg/injection, schedule: Q01DX001 (ip), vehicle: saline with Tween-80 91 % of control | endpoint: mean survival time, dose: 400.0 mg/kg/injection, schedule: Q01DX001 (ip), vehicle: saline with Tween-80 88 % of control

CS(=O)(=O)C(Br)S(C)(=O)=O
inactive: endpoint: mean survival time, dose: 3.13 mg/kg/injection, schedule: Q01DX009 (ip), vehicle: saline 102 % of control | endpoint: mean survival time, dose: 6.25 mg/kg/injection, schedule: Q01DX009 (ip), vehicle: saline 102 % of control | endpoint: mean survival time, dose: 6.25 mg/kg/injection, schedule: Q04DX003 (ip), vehicle: saline 96 % of control | endpoint: mean survival time, dose: 12.5 mg/kg/injection, schedule: Q01DX009 (ip), vehicle: saline 101 % of control | endpoint: mean survival time, dose: 12.5 mg/kg/injection, schedule: Q04DX003 (ip), vehicle: saline 93 % of control | endpoint: mean survival time, dose: 25.0 mg/kg/injection, schedule: Q04DX003 (ip), vehicle: saline 109 % of control

Cc1ccc(P(=S)(c2ccccc2)c2ccc(C)c3ccccc23)c2ccccc12
inactive: endpoint: mean survival time, dose: 100.0 mg/kg/injection, schedule: Q01DX001 (ip), vehicle: saline 97 % of control | endpoint: mean survival time, dose: 200.0 mg/kg/injection, schedule: Q01DX001 (ip), vehicle: saline 91 % of control | endpoint: mean survival time, dose: 400.0 mg/kg/injection, schedule: Q01DX001 (ip), vehicle: saline 93 % of control

Nc1ncc(C(=O)c2ccccc2)cc1[N+](=O)[O-]
inactive: [6] 96 % of control | [7] 96 % of control

O=C(O)c1c(F)cccc1Br
inactive: endpoint: mean survival time, dose: 100.0 mg/kg/injection, schedule: Q04DX002 (ip), vehicle: saline with Tween-80 102 % of control | endpoint: mean survival time, dose: 200.0 mg/kg/injection, schedule: Q04DX002 (ip), vehicle: saline with Tween-80 98 % of control | endpoint: mean survival time, dose: 400.0 mg/kg/injection, schedule: Q04DX002 (ip), vehicle: saline with Tween-80 102 % of control

C1CN(SSN2CCOCC2)CCO1
inactive: [6] 100 % of control | [7] 92 % of control

COc1cc2c(cc1OC)C(CCN)=NCC2
inactive: endpoint: mean survival time, dose: 25.0 mg/kg/injection, schedule: Q01DX009 (ip), vehicle: saline sonified 98 % of control | endpoint: mean survival time, dose: 50.0 mg/kg/injection, schedule: Q01DX009 (ip), vehicle: saline sonified 98 % of control | endpoint: mean survival time, dose: 100.0 mg/kg/injection, schedule: Q01DX009 (ip), vehicle: saline sonified 93 % of control | [9] 97 % of control

COC/C(=N/Nc1ccc([N+](=O)[O-])cc1[N+](=O)[O-])c1ccccc1
inactive: [6] 102 % of control | [7] 108 % of control | [8] 100 % of control

Cc1cn(C(C=O)OC(C=O)CO)c(=O)[nH]c1=O (stereo not drawn)
inactive: endpoint: mean survival time, dose: 10.0 mg/kg/injection, schedule: Q01DX005 (ip), vehicle: water 107 % of control | endpoint: mean survival time, dose: 10.0 mg/kg/injection, schedule: Q01DX009 (ip), vehicle: water 104 % of control | endpoint: mean survival time, dose: 12.5 mg/kg/injection, schedule: Q01DX005 (ip), vehicle: water 104 % of control | endpoint: mean survival time, dose: 20.0 mg/kg/injection, schedule: Q01DX005 (ip), vehicle: water 102 % of control | endpoint: mean survival time, dose: 20.0 mg/kg/injection, schedule: Q01DX009 (ip), vehicle: water 107 % of control | endpoint: mean survival time, dose: 25.0 mg/kg/injection, schedule: Q01DX005 (ip), vehicle: water 98 % of control | endpoint: mean survival time, dose: 40.0 mg/kg/injection, schedule: Q01DX005 (ip), vehicle: water 112 % of control | endpoint: mean survival time, dose: 40.0 mg/kg/injection, schedule: Q01DX009 (ip), vehicle: water 124 % of control | endpoint: mean survival time, dose: 50.0 mg/kg/injection, schedule: Q01DX005 (ip), vehicle: water 104 % of control | endpoint: mean survival time, dose: 80.0 mg/kg/injection, schedule: Q01DX009 (ip), vehicle: water 120 % of control | endpoint: mean survival time, dose: 100.0 mg/kg/injection, schedule: Q01DX005 (ip), vehicle: water 104 % of control | endpoint: mean survival time, dose: 160.0 mg/kg/injection, schedule: Q01DX009 (ip), vehicle: water 102 % of control | endpoint: mean survival time, dose: 200.0 mg/kg/injection, schedule: Q01DX005 (ip), vehicle: water 109 % of control

CCCNC(=O)Nc1ccc(C(=O)OCC(C)C)cc1
inactive: [9] 93 % of control | [10] 95 % of control | [11] 104 % of control

Cc1ccccc1S(=O)(=O)N/N=C/c1ccsc1
inactive: endpoint: median survival time, dose: 50.0 mg/kg/injection, schedule: Q04DX002 (ip), vehicle: saline with Tween-80 90 % of control | endpoint: median survival time, dose: 100.0 mg/kg/injection, schedule: Q04DX002 (ip), vehicle: saline with Tween-80 90 % of control | endpoint: median survival time, dose: 200.0 mg/kg/injection, schedule: Q04DX002 (ip), vehicle: saline with Tween-80 100 % of control | endpoint: median survival time, dose: 400.0 mg/kg/injection, schedule: Q04DX002 (ip), vehicle: saline with Tween-80 90 % of control

Cc1ccc(NS(=O)(=O)c2cccc([N+](=O)[O-])c2)cc1Cl
inactive: [6] 92 % of control | [7] 97 % of control | [8] 92 % of control

Brc1ccc(C[N+]23CN4CN(CN(C4)C2)C3)cc1
inactive: [4] 102 % of control | [5] 102 % of control | [1] 97 % of control | [2] 96 % of control | [3] 94 % of control

O=[N+]([O-])c1ccc(Cl)c(S(=O)O)c1
inactive: endpoint: mean survival time, dose: 100.0 mg/kg/injection, schedule: Q01DX009 (ip), vehicle: saline 95 % of control | [9] 110 % of control | endpoint: mean survival time, dose: 200.0 mg/kg/injection, schedule: Q01DX009 (ip), vehicle: saline 106 % of control | [10] 102 % of control | endpoint: mean survival time, dose: 400.0 mg/kg/injection, schedule: Q01DX009 (ip), vehicle: saline 103 % of control | [11] 106 % of control

O=Cc1n[nH]nc1-c1ccccc1
inactive: [2] 94 % of control | [6] 98 % of control | [3] 100 % of control | [7] 101 % of control | endpoint: mean survival time, dose: 400.0 mg/kg/injection, schedule: Q01DX009 (ip), vehicle: saline with Tween-80 103 % of control | [8] 95 % of control

C=CC(=O)NC12CC3CC(CC(C3)C1)C2
inactive: [9] 100 % of control | [10] 101 % of control | [11] 101 % of control

Cc1cc(NCCCCCCCCNc2cc(C)nc3cc(N(C)C)ccc23)c2ccc(N(C)C)cc2n1
inactive: endpoint: median survival time, dose: 1.57 mg/kg/injection, schedule: Q01DX009 (ip), vehicle: distilled water + Tween-80 + alcohol 108 % of control | endpoint: median survival time, dose: 3.12 mg/kg/injection, schedule: Q01DX009 (ip), vehicle: distilled water + Tween-80 + alcohol 118 % of control | endpoint: median survival time, dose: 3.12 mg/kg/injection, schedule: Q01DX009 (ip), vehicle: distilled water + Tween-80 115 % of control | endpoint: median survival time, dose: 6.25 mg/kg/injection, schedule: Q01DX009 (ip), vehicle: distilled water + Tween-80 123 % of control | endpoint: median survival time, dose: 12.5 mg/kg/injection, schedule: Q01DX009 (ip), vehicle: distilled water + Tween-80 123 % of control

CSc1ccccc1C(C)(C)C(=O)O
inactive: [6] 105 % of control | [7] 105 % of control | [8] 96 % of control
